The values that follow come from US6858638B2, “Substituted indazoles, compositions containing them, method of production and use” (Aventis Pharma S.A., priority 2002, dated 2005).

For this assay, the target named is CDK2/cyclinE kinase (Homo sapiens, UniProt P24941). Kind of assay: CDK2/cyclinE kinase phosphorylation of Rb-biotinylated peptide, scintillation plates. The conditions noted are these: read-out: CDK2 % inhib at 10 μM. It is filed as biochemical. The procedure: The inhibition of the CDK2/cyclinE kinase is evaluated by measuring the phosphorylation of the peptide substrate Rb-biotinylated, detected by […], in 96-well scintillation plates (Flashplates) coated with streptavidin.
Each point is assayed in duplicate.
Sequence of the Rb-biotinylated peptide: Biotin-[…]-OH
Protocol: • 1. Preparation of the substrate: fresh solution at 1 mg/ml in PBS. • 2. Introduce 4 μg per well into the scintillation plate. • 3. Incubate for 2 hours at ambient temperature. • 4. Prepare series of dilutions at 1 mM, 300 μM, 100 μM, 30 μM and 10 μM in DMSO from a stock solution of inhibitor at 10 mM in DMSO. • 5. Wash the scintillation plate with 3 times 300 μl of PBS to remove the unbound peptide substrate. • 6. Add the CDK2/cyclinE kinase: 200 ng per well, in 90 μl of kinase buffer (with the exception of the “without enzyme” control wells). • 7. Add the test inhibitor to each of the wells, at a final concentration for 100 μl of 10 μM, 3 μM, 1 μM, 0.3 μM and 0.1 μM. • 8. Agitate the scintillation plate gently for 1 minute. • 9. Incubate for 30 minutes on ice. • 10. Initiate the reaction with 10 μl of kinase buffer having a final concentration per well of 1 μM of cold ATP and of 1 μCi of ATP-^33P. • 11. […] Indirect measurement of the radioactivity corresponding to the incorporation of ATP-^33P, originating from the kinase, into the phosphorylation site of Rb. […]

For `Nc1n[nH]c2ccc(NS(=O)(=O)c3cccc(F)c3)cc12` [Example 26, N-(3-Amino-1H-indazol-5-yl)-3-fluorobenzenesulfonamide], the inhibition at 10 µM was determined as 39%. Consider `CS(=O)(=O)c1ccccc1S(=O)(=O)Nc1ccc2[nH]nc(-c3ccc(Cl)cc3)c2c1` [Example 30, N-[3-(4-Chlorophenyl)-1H-indazol-5-yl]-2-methylsulfonylbenzenesulfonamide], for which the inhibition at 10 µM came to 73%.
